≈ marks a conversion by molar mass, not a printed value. Where two headings read alike, the source gives them in different places.
Assays:
[1] = target: FabI enzyme from Acinetobacter baumannii (Acinetobacter baumannii, UniProt D0CAD5); test: Inhibition of FabI enzyme, rate of NADH consumption; type: biochemical
Procedure: Inhibition of FabI enzyme from Acinetobacter baumannii and Escherichia coli was tested by measuring the rate of NADH consumption (Δabsorbance at 340 nm/min) at 30° C. in 96-well plate format using an automated plate reader in the presence or absence of the test compounds. The assay mixture contained 100 mM Tris-HCl, pH 7.25 (A. baumannii) or 7.5 (E. coli), 100 mM ammonium acetate, 0.02% (A. baumannii) or 0.05% (E. coli) Pluronic F-68, 25 μM crotonyl ACP, 50 μM NADH, 25 pM (A. baumannii) or 50 pM (E. coli) recombinant FabI protein, and 7.5% DMSO. Test compounds were added at concentrations ranging from 0.17 to 10,000 nM in a final well volume of 100 μl. This dose-response inhibitory assay was performed using a 10-point, serial dilution series for each test compound. IC50 values for each test compound were assigned from logistical sigmoid curve-fitting of the inhibition dose response curves.

[2] = tested on: A. baumannii ATCC BAA1605; test: Broth microdilution MIC assay; type: cell-based; conditions: Acinetobacter baumannii, ATCCBAA1605; CA-MHB, 35° C., 20 hours
Procedure: (§1) The antibacterial activity of FabI inhibitors against select Gram-negative and Gram-positive bacterial species including susceptible and multi-drug resistant A. baumannii, E. coli, K. pneumoniae and S. aureus was tested using the broth microdilution Minimal Inhibitory Concentration (MIC) assay following CLSI guidelines for insoluble compounds. Test articles were serially diluted 2-fold in 100% dimethyl sulfoxide (DMSO) and then diluted 100-fold into cation adjusted Mueller-Hinton broth (CA-MHB) to achieve a 10-point test concentration range in 1% DMSO. Final compound concentrations were 0.016-8 μg/ml for S. aureus or 0.06-32 μg/ml for the Gram-negative species. MIC test plates were then prepared by transferring 100 μl of the final assay medium (test article in CA-MHB, 1% DMSO) into the appropriate wells of a sterile, low binding 96-well polystyrene plate. Direct colony suspension inoculums of the test strains were freshly prepared per CLSI guidelines, and the appropriate test wells were inoculated to achieve a final bacterial cell density of 5×10^5 CFU/ml. Growth control (no test article) and negative control (no bacterial inoculum) wells were also included. Exposure to light was minimized during all stages of assay preparation. […] Bacterial growth was then determined by measuring the optical density at 600 nm (OD600) using a SpectraMax Plus plate-reader spectrophotometer.

E. coli AG100 = test: Broth microdilution MIC assay; type: cell-based; conditions: Escherichia coli, CA-MHB, 35° C., 20 hours
Procedure: as §1

[3] = tested on: Acinetobacter baumannii ATCC 17978; test: MIC against the in vivo test strain; type: cell-based; conditions: A. baumannii ATCC 17978; for MIC: Acinetobacter baumannii, ATCC17978
Procedure: as §1
(§2) On day 0, animals were inoculated intramuscularly (0.1 ml/thigh) with a 1.67×10^4 inoculum count of Acinetobacter baumannii ATCC 17978. Vehicle control (40% Captisol), positive control (tigecycline) or test substances were then administered 2 hr post infection by the subcutaneous (SC) route of administration. Each dosing group consisted of 5 female mice. The MICs of the compounds against the test strain were 8 μg/ml, 2 μg/ml and […] for compound 201, compound 71 and compound 200, respectively. At 26 or 74 hours after inoculation (24 or 72 hr after treatment initiation), animals were euthanized with CO2 asphyxiation and the thigh tissue harvested from each of the test animals. The tissues were homogenized in 3 mL of PBS, pH 7.4 with a homogenizer. Homogenates, 0.1 mL, were used for serial 10-fold dilutions and plated onto NB agar for colony counts. Efficacy is calculated as the change in log CFU/g thigh vs. the time 0 (treatment initiation) control.
[…]

[4] = tested on: Acinetobacter baumannii ATCC 17978; test: Mouse thigh infection model; type: in vivo, BALB/c mice; conditions: for Mean Change log CFU/g thigh 72 hr / Mean Change log CFU/g thigh 24 hr: vs. time 0 control; for Mean Log CFU/g thigh 72 hr: 72 hr treatment; for Mean Log CFU/g thigh 24 hr: 24 hr treatment; for efficacy in words, thigh model summary: 24 hr and 72 hr treatment
Procedure: (§3) Groups of 5 female specific-pathogen-free BALB/c mice weighing 18±2 g were used. In the 24 hr model (bacterial counts determined 24 hr after treatment start), mice were rendered neutropenic with cyclophosphamide intraperitoneal (IP) administration conducted at Days −4 (150 mg/kg), and day −1 (100 mg/kg). In the 72 hr model (bacterial counts determined 72 hr after treatment start), animals were rendered persistently neutropenic for the duration of the infection period with cyclophosphamide intraperitoneal (IP) administration conducted at Days −4 (150 mg/kg), −1 (100 mg/kg) and +1 (100 mg/kg). Persistent neutropenia is required to prevent pathogen clearance from thigh tissue in the 74 hr model. Nutritional supplementation (diet gel) plus saline SC injections were provided daily to help animals tolerate the cyclophosphamide treatment.
as §2

A. baumannil ATCC 17978 = test: Mouse lung infection model; type: in vivo, BALB/c mice; conditions: for Mean change log CFU/g lung 24 hr / Mean change log CFU/g lung 72 hr: vs. time 0 control; for Mean Log CFU/g lung 24 hr: 24 hr treatment; for Mean Log CFU/g lung 72 hr: 72 hr treatment
Procedure: as §3, with “lung” for “thigh”
On day 0, animals were anesthetized with etomidate-lipuro emulsion (20 mg/10 mL; 20 mg/kg dose, IV) and then inoculated intranasally with an A. baumannil ATCC 17978 suspension, 1.36×10^5 CFU/mouse, 0.02 mL/mouse. Vehicle control (40% Captisol), positive control (tigecycline) or test substances were then administered 2 hr post infection by the subcutaneous (SC) route of administration. Each dosing group consisted of 5 female mice. The MICs of the compounds against the test strain were 8 μg/ml and 0.5 μg/ml for compound 201 and compound 200, respectively. At 26 or 74 hours after inoculation (24 or 72 hr after treatment initiation), animals were euthanized with CO2 asphyxiation and the lung tissue harvested from each of the test animals. The tissues were homogenized in 1 ml of PBS, pH 7.4 with a homogenizer. Homogenates, 0.1 mL, were used for serial 10-fold dilutions and plated onto MacConkey II agar for colony counts. Efficacy is calculated as the change in log CFU/g […] vs. the time 0 (treatment initiation) control.

K. pneumoniae A6030827 = test: Broth microdilution MIC assay; type: cell-based; conditions: Klebsiella pneumoniae, CA-MHB, 35° C., 20 hours
Procedure: as §1

S. aureus ATCC 29213 = test: Broth microdilution MIC assay; type: cell-based; conditions: Staphylococcus aureus, ATCC29213; CA-MHB, 35° C., 20 hours
Procedure: as §1

[5] = 25 mg/kg q6h SC, total daily dose 100 mg/kg
[6] = 50 mg/kg q6h SC, total daily dose 200 mg/kg
[7] = following both 24 hr and 72 hr treatment, SC

Sequence of FabI enzyme from Acinetobacter baumannii (D0CAD5 entry or part of it): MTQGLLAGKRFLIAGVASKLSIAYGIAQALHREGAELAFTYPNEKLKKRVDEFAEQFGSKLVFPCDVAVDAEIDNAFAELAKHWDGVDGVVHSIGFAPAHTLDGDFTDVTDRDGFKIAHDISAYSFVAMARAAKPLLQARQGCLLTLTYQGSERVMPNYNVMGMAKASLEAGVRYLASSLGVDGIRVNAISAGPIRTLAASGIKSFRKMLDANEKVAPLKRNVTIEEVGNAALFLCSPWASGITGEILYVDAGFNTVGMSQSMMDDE

SMILES	MIC [2] [µg/mL]	MIC (E. coli AG100) [µg/mL]	MIC [3] [µg/mL]	Mean Change log CFU/g thigh 72 hr ([4]; 25 mg/kg q6h SC) [log CFU/g thigh]	Mean Log CFU/g thigh 72 hr [4, 5] [log CFU/g thigh]	Mean Change log CFU/g thigh 24 hr ([4]; 50 mg/kg q6h SC) [log CFU/g thigh]	Mean Change log CFU/g thigh 72 hr ([4]; 50 mg/kg q6h SC) [log CFU/g thigh]	Mean Log CFU/g thigh 24 hr [4, 6] [log CFU/g thigh]	Mean Log CFU/g thigh 72 hr [4, 6] [log CFU/g thigh]	efficacy in words, thigh model summary ([4]; SC)	Mean change log CFU/g lung 24 hr (A. baumannil ATCC 17978; 25 mg/kg q6h SC) [log CFU/g lung]	Mean change log CFU/g lung 72 hr (A. baumannil ATCC 17978; 25 mg/kg q6h SC) [log CFU/g lung]	Mean Log CFU/g lung 24 hr (A. baumannil ATCC 17978; [5]) [log CFU/g lung]	Mean Log CFU/g lung 72 hr (A. baumannil ATCC 17978; [5]) [log CFU/g lung]	Mean change log CFU/g lung 24 hr (A. baumannil ATCC 17978; 50 mg/kg q6h SC) [log CFU/g lung]	Mean change log CFU/g lung 72 hr (A. baumannil ATCC 17978; 50 mg/kg q6h SC) [log CFU/g lung]	Mean Log CFU/g lung 24 hr (A. baumannil ATCC 17978; [6]) [log CFU/g lung]	Mean Log CFU/g lung 72 hr (A. baumannil ATCC 17978; [6]) [log CFU/g lung]	MIC (S. aureus ATCC 29213) [µg/mL]	other results
Cc1c(CN(C)C(=O)/C=C/c2cnc3c(c2)CC(N)C(=O)N3)oc2ccccc12.Cl (stereo not drawn) [Compound 201, (E)-3-(6-amino-7-oxo-5,6,7,8-tetrahydro-1,8-naphthyridin-3-yl)-N-methyl-N-((3-methylbenzofuran-2-yl)methyl)acrylamide hydrochloride, reference compound]	16	8	8	2.24	7.09	2.26	1.86	7.11	6.70	no efficacy	1.02	0.21	7.32	6.51	0.26	−0.35	6.56	5.95	–	IC50 [1]: 19 nM; efficacy in words, lung model summary (A. baumannil ATCC 17978; SC, 24 hr and 72 hr treatment): very slight efficacy
Cc1c(CN(C)C(=O)/C=C/c2cnc3c(c2)CC[C@H](N)C(=O)N3)oc2ccccc12.Cl (single isomer, unassigned) [Compound 71]	≤ 4	≤ 4	2	2.25	7.09	0.60	1.10	5.45	5.95	very slight efficacy	–	–	–	–	–	–	–	–	≤ 4	MIC (K. pneumoniae A6030827): ≤ 4 µg/mL
Cc1oc2ccccc2c1CN(C)C(=O)/C=C/c1cnc2c(c1)CC[C@H](N)C(=O)N2 [Compound 200, (S,E)-3-(7-amino-8-oxo-6,7,8,9-tetrahydro-5H-pyrido[2,3-b]azepin-3-yl)-N-methyl-N-((2-methylbenzofuran-3-yl)methyl)acrylamide]	≤ 4	≤ 4	0.5 (≈ 1.24 µM)	−2.27	2.58	−2.53	−2.14	2.31	2.71	–	−2.44	−2.21	3.86	4.09	−3.50	−3.39	2.80	2.91	≤ 4	IC50 ([1]; recombinant FabI, 30° C., pH 7.25, read-out: A. baumannii Fabl IC50): < 10 nM; MIC against the test strain [3]: 0.5 µg/mL (≈ 1.24 µM); efficacy (log kill), thigh model [4, 7]: 2.1-2.4 log kill; efficacy (log kill), lung model (A. baumannil ATCC 17978; [7]): 2.5-3.5 log kill

Reference: US12473283B2, “Compounds and their use” (Debiopharm International S.A., priority 2019, dated 2025)
